Assays:
[1] = biological target: T1, human progesterone receptor-A [PRA] isoform (Homo sapiens, UniProt P06401); test: Radioligand binding with human progesterone receptor cytosol ([3H]-progesterone competition); details: PRA cytosol expressed in insect SF21 cells, [3H]Prog ~0.8 nM, 4° C. overnight; Ki by Cheng-Prusoff, KL ~4.5 nM; read-out: Ki (nM) PR
T1 construct: host or cells: insect SF21 cells (baculovirus)
T1 sequence (P06401 1-769 isoform P06401-2): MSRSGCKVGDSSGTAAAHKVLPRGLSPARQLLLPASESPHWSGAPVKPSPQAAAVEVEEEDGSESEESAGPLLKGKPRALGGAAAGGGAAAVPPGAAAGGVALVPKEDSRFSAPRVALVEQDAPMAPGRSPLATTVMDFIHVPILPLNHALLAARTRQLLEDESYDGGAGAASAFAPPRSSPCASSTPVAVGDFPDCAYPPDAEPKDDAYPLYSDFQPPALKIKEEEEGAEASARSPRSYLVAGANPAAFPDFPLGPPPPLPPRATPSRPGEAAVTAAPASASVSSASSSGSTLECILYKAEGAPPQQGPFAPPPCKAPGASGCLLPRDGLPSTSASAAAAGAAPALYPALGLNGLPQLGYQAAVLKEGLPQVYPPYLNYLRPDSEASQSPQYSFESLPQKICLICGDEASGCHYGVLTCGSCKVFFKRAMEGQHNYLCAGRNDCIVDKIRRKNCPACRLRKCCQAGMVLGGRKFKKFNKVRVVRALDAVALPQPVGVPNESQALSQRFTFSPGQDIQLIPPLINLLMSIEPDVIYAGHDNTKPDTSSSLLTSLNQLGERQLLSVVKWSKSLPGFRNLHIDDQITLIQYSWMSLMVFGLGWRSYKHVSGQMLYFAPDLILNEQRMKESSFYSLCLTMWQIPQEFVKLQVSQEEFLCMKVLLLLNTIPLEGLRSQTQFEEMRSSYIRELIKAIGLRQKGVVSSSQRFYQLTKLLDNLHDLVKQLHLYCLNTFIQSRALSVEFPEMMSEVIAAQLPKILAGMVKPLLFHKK

[2] = biological target: T2, human glucocorticoid receptor-α [GRX] isoform (Homo sapiens, UniProt P04150); test: Radioligand binding with human glucocorticoid receptor cytosol ([3H]-dexamethasone competition); details: GRX cytosol expressed in insect SF21 cells, [3H]-Dex ~0.9 nM, 4° C. overnight; Ki by Cheng-Prusoff, KL ~[…]; read-out: Ki (nM) GR
T2 construct: host or cells: insect SF21 cells (baculovirus)
T2 sequence (P04150 1-777): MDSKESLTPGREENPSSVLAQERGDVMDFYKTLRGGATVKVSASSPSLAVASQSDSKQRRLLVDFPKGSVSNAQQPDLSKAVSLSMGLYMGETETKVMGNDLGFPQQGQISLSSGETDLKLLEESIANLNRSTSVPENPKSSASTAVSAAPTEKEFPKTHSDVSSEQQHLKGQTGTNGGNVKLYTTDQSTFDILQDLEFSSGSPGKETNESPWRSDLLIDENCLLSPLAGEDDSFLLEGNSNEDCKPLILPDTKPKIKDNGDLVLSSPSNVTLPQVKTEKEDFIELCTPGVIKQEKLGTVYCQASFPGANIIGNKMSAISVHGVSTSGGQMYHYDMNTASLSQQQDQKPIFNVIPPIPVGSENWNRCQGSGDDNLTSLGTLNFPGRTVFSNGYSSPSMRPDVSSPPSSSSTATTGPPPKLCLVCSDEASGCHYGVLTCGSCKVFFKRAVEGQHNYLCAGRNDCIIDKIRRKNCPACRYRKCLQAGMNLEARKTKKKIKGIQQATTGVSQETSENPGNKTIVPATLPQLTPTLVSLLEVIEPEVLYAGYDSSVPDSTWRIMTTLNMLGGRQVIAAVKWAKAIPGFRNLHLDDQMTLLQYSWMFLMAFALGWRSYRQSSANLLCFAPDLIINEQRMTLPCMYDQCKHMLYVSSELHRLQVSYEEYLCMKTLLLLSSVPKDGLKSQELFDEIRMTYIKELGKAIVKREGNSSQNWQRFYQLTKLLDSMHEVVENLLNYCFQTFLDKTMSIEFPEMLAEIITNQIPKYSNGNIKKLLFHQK

Structure (SMILES) | Ki [1] [nM] | Ki [2] [nM]
COc1cccc2c1-c1ccc3c(c1C(c1ccc(N4CCOCC4)cc1)O2)C(C)=CC(C)(C)N3 (stereo not drawn) [Example 42, 2,5-Dihydro-10-methoxy-2,2,4-trimethyl-5-[4-(1-morpholinyl)phenyl]1H-[1]benzopyrano[3,4-f]quinoline] | ≥ 10000 | 99
COc1cccc2c1-c1ccc3c(c1C(CC(=O)C(C)(C)C)O2)C(C)=CC(C)(C)N3 (stereo not drawn) [Example 43, 1-(2,5-Dihydro-10-methoxy-2,2,4-trimethyl-1H-[1]benzopyrano[3,4-f]quinolin-5yl)-3,3-dimethyl-2-butanone] | ≥ 10000 | 72
COc1cccc2c1-c1ccc3c(c1C(C#N)O2)C(C)=CC(C)(C)N3 (stereo not drawn) [Example 44, 2,5-Dihydro-10-methoxy-2,2,4-trimethyl-1H-[1]benzopyrano[3,4-f]quinoline-5-carbonitrile] | 19500 | 190
COC(=O)CC1Oc2cccc(OC)c2-c2ccc3c(c21)C(C)=CC(C)(C)N3 (stereo not drawn) [Example 46, Methyl 2,5-Dihydro-10-methoxy-2,2,4-trimethyl-1H-[1]benzopyrano[3,4-f]quinoline-5-acetate] | 3440 | 2.7
COc1cccc2c1-c1ccc3c(c1C(CC(=O)c1ccccc1)O2)C(C)=CC(C)(C)N3 (stereo not drawn) [Example 47, 2-(2,5-Dihydro-10-methoxy-2,2,4-trimethyl-1H-[1]benzopyrano[3,4-f]quinolin-5-yl)-1-phenylethanone] | ≥ 10000 | 174
C=C(CCl)CC1Oc2cccc(OC)c2-c2ccc3c(c21)C(C)=CC(C)(C)N3 (stereo not drawn) [Example 48, 5-[2-(Chloromethyl)-2-propenyl]-2,5-dihydro-10-methoxy-2,2,4-trimethyl-1H-[1]benzopyrano[3,4-f]quinoline] | 2770 | 5.8
C=C(COC(C)=O)CC1Oc2cccc(OC)c2-c2ccc3c(c21)C(C)=CC(C)(C)N3 (stereo not drawn) [Example 49] | ≥ 10000 | 13
COc1cccc2c1-c1ccc3c(c1C(c1ccc(C)cc1)O2)C(C)=CC(C)(C)N3 (stereo not drawn) [Example 50, 2,5-Dihydro-10-methoxy-2,2,4-tnimethyl-5-(4-methylphenyl)-1H-[1]benzopyrano[3,4-f]quinoline] | 9450 | 4.9
COc1cccc2c1-c1ccc3c(c1C(c1ccc(C)c(F)c1)O2)C(C)=CC(C)(C)N3 (stereo not drawn) [Example 51] | 7330 | 18
COc1cccc2c1-c1ccc3c(c1C(c1cccc(Br)c1)O2)C(C)=CC(C)(C)N3 (stereo not drawn) [Example 52, 5-(3-Bromophenyl)-2,5-dihydro-10-methoxy-2,2,4-trimethyl-1H-[1]benzopyrano[3,4-f]quinoline] | 2270 | 3
COc1cccc2c1-c1ccc3c(c1C(c1ccc(F)c(C)c1)O2)C(C)=CC(C)(C)N3 (stereo not drawn) [Example 55] | ≥ 10000 | 8.2
COc1cccc2c1-c1ccc3c(c1C(c1cccc(F)c1)O2)C(C)=CC(C)(C)N3 (stereo not drawn) [Example 56, 5-(3-Fluorophenyl)-2,5-Dihydro-10-methoxy-2,2,4-trimethyl-1H-[1]benzopyrano[3,4-f]quinoline] | ≥ 10000 | 6.2
COc1cccc2c1-c1ccc3c(c1C(C(C)C)O2)C(C)=CC(C)(C)N3 (stereo not drawn) [Example 58, 2,5-Dihydro-10-methoxy-2,2,4-trimethyl-5-(1-methylethyl)-1H-[1]benzopyrano[3,4-f]quinoline] | 8570 | 9
COc1cccc2c1-c1ccc3c(c1C(CC(C)C)O2)C(C)=CC(C)(C)N3 (stereo not drawn) [Example 59, 2,5-Dihydro-10-methoxy-2,2,4-trimethyl-5-(2-methlpropyl)-1H-[1]benzopyrano[3,4-f]quinoline] | 16600 | 9.5
CCC1Oc2cccc(OC)c2-c2ccc3c(c21)C(C)=CC(C)(C)N3 (stereo not drawn) [Example 60, 5-Ethyl-2,5-dihydro-10-methoxy-2,2,4-trimethyl-1H-[1]benzopyrano[3,4-f]quinoline] | 10500 | 14
CCOC(=N)C1Oc2cccc(OC)c2-c2ccc3c(c21)C(C)=CC(C)(C)N3 (stereo not drawn) [Example 61, 2,5-Dihydro-10-methoxy-2,2,4-trimethyl-1H-[1]benzopyrano[3,4-f]quinoline-5-carboximidic Acid Ethyl Ester] | 14400 | 62
COc1cccc2c1-c1ccc3c(c1C(CC(=O)N(C)C)O2)C(C)=CC(C)(C)N3 (stereo not drawn) [Example 63, 2,5-Dihydro-10-methoxy-2,2,4,N,N-pentamethyl-1H-[1]benzopyrano[3,4-f]quinoline-5-acetamide] | ≥ 10000 | 511
COc1cccc2c1-c1ccc3c(c1C(CC(=O)NC1CC1)O2)C(C)=CC(C)(C)N3 (stereo not drawn) [Example 65, N-Cyclopropyl-2,5-Dihydro-10-methoxy-2,2,4-trimethyl-1H-[1]benzopyrano[3,4-f]quinoline-5-acetamide] | ≥ 10000 | 591
COc1cccc2c1-c1ccc3c(c1C(C1C=CC(=O)O1)O2)C(C)=CC(C)(C)N3 (stereo not drawn) [Example 67, 5-(2,5-Dihydro-10-methoxy-2,2,4-trimethyl-1H-[1]benzopyrano[3,4-f]quinolin-5-yl)2(5H)-furanone] | ≥ 10000 | 21.7
C=CCCC1Oc2cccc(OC)c2-c2ccc3c(c21)C(C)=CC(C)(C)N3 (stereo not drawn) [Example 68, 5-(32-Butenyl)-2,5-dihdro-10-methoxy-2,2,4-trimethyl-1H -1H-[1]benzopyrano[3,4-f]quinoline] | 9050 | 8
CCc1cccc2c1-c1ccc3c(c1C(c1ccccc1)O2)C(C)=CC(C)(C)N3 (stereo not drawn) [Example 70, 10-Ethyl-2,5-dihydro-2,2,4-trimethyl-5-phenyl-1H-[1]benzopyrano[3,4-f]quinoline] | 7300 | 25.5
CC1=CC(C)(C)Nc2ccc3c(c21)C(c1ccccc1)Oc1cccc(C)c1-3 (stereo not drawn) [Example 71, 2,5-Dihydro-2,2,4,10-tetrametnyl-5-phenyl-1H-[1]benzopyrano[3,4-f]quinoline] | 484 | 7.7
CCc1cccc2c1-c1ccc3c(c1C(c1cc(Cl)cc(Cl)c1)O2)C(C)=CC(C)(C)N3 (stereo not drawn) [Example 72, 5-(3,5-Dichlorophenyl)-10-ethyl-2,5-dihydro-2,2,4-trimethyl-1H-[1]benzopyrano[3,4-f]quinoline] | 1450 | 17.8
CNc1cccc2c1-c1ccc3c(c1C(c1cc(Cl)cc(Cl)c1)O2)C(C)=CC(C)(C)N3 (stereo not drawn) [Example 73, 5-(3,5-Dichlorophenyl)-2,5-dihydro-2,2,4,N-tetramethyl-1H[1]benzopyrano[3,4-f]quinolin-10-amine] | 4500 | 10.3
C=CCNc1cccc2c1-c1ccc3c(c1C(c1cc(Cl)cc(Cl)c1)O2)C(C)=CC(C)(C)N3 (stereo not drawn) [Example 74, 5-(3,5-Dichlorophenyl)-2,5-dihydro-2,2,4-trimethyl-N-(2-propenyl)-1H-[1]benzopyrano[3,4-f]quinolin-10-amine] | 4880 | 11.9
C#CCOc1cccc2c1-c1ccc3c(c1C(c1ccccc1)O2)C(C)=CC(C)(C)N3 (stereo not drawn) [Example 75, 2,5-Dihydro-2,2,4-trimethyl-5-phenyl-10-(2-propynyloxy)-1H-[1]benzopyrano[3,4-f]quinoline] | 13800 | 7.3
C=CCOc1cccc2c1-c1ccc3c(c1C(c1ccccc1)O2)C(C)=CC(C)(C)N3 (stereo not drawn) [Example 76, 2,5-Dihydro-2,2,4-trimethyl-5-phenyl-10-(2-prenyloxy)-1H-[1]benzopyrano[3,4-f]quinoline] | ≥ 10000 | 152
